We go through 10 compounds from patent US11285125B2, “Oxidative retinal diseases” (priority 2011, dated 2022).

The subject of data set [1] is coq null mutants (Q-less yeast). The following applies: cited from earlier work; for sensitivity of Q-less yeast to fatty acid treatment: compared with wild-type parental strain.
Data set [2] concerns Q-less coq3 yeast.
Description: Wild-type, yeast Q-less coq3, or respiratory deficient con 1 null mutants were incubated in the presence of 200 μM of LA and D2-LA at different ratios of PUFAs. Serial dilutions (1:5) starting at 0.2 OD/ml were spotted on YPD solid plate medium. A zero-time untreated control is shown on the top left. Growth at 30° C.
Wild-type, yeast Q-less coq3, or respiratory deficient con 1 null mutants were incubated in the presence of 200 μM of ALA and D4-LA at different ratios of PUFAs. Serial dilutions (1:5) starting at 0.2 OD/ml were spotted on YPD solid plate medium. Growth at 30° C.
Wild-type, yeast Q-less coq3, or respiratory deficient cor1 null mutants were incubated in the presence of 200 μM of LA and D2-LA at different ratios of PUFAs, as indicated in FIG. 9. Serial dilutions (1:5) starting at 0.20D/ml were spotted on YPD solid plate medium. […] Growth was at 30° C.
The experimental protocol described for Example 14 was also reproduced in vivo using Q-less coq3 yeast strains (FIG. 10) and different ratios of ALA to D4-ALA. Wild-type, yeast Q-less coq3, or respiratory deficient cor1 null mutants were incubated in the presence of 200 μM of ALA and D4-Lnn (Linolenic acid) at different ratios of PUFAs, as indicated in FIG. 10. Serial dilutions (1:5) starting at 0.2 OD/ml were spotted on YPD solid plate medium. Growth was at 30° C.
Data set [3] deals with wild-type yeast (W303). The following applies: four hour treatment, strain W303-1B background; cited from earlier work.
Data set [4] relates to coq null mutants (Q-less yeast). The settings on record: for viability of coq null mutants after fatty acid treatment: 200 μM fatty acid, plate dilution assay; for viability of cells by quantitative colony counting: colony counting at 1, 2 and 4 h.
Description: Yeast coq3, coq7 and coq9 null mutants were prepared in the W303 yeast genetic background (WT). […] Cells were washed twice with sterile water and resuspended in phosphate buffer (0.10 M sodium phosphate, pH 6.2, 0.2% dextrose) to an OD600 nm=0.2. Samples were removed and 1:5 serial dilutions starting at 0.20 OD/ml were plated on YPD plate medium, to provide a zero time untreated control (shown in top left panel). The designated fatty acids were added to 200 μM final concentration to 20 ml of yeast in phosphate buffer. At 2 h, 4 h, and 16 h samples were removed, 1:5 serial dilutions prepared, and spotted onto YPD plate medium. Pictures were taken after 2 days of growth at 30° C. This panel is representative of two independent assays, performed on different days.
The fatty acid sensitive assay was performed as described in FIG. 6-1, except that 100 μl aliquots were removed at 1, 2, and 4 h and, following dilution, spread onto YPD plates. Pictures were taken after 2 to 2.5 days, and the number of colonies counted. Yeast strains include Wild type (circles), atp2 (triangles), or coq3 (squares); Fatty acid treatments include oleic C18:1 (solid line), linolenic, C18:3, n-3 (dashed line) or 11,11,14,14-D4-linolenic, C18:3, n-3, (dotted line).
A plate dilution assay can be used to assess PUFA sensitivity. This assay can be performed by spotting serial five-fold dilutions of aliquots onto YPD plate media (FIG. 3). The sensitivity of the different strains can be observed by visual inspection of the density of cells in each spot.
A short description of data set [5]: Kinetics of O2 consumption during non-enzymatic chain oxidation in chlorobenzene initiated by AMVN. The format is physicochemical. The settings on record: for rate of oxidation, ROX: 0.71 M in chlorobenzene, 40 mM AMVN, 37° C. Here is the method:
FIG. 7. Kinetics of O2 consumption accompanied the oxidation of 0.71 M LA (plots 1 and 2) and 0.71 M D2-LA (plot 3) in chlorobenzene initiated by 40 mM AMVN at 37° C. Plot 2-0.23 mM HPMC was added to 0.71 M LA.
The kinetics of oxygen consumption during the oxidation of LA and D2-LA was studied with a glass capillary microvolumeter (FIG. 7). The rate of oxidation, ROX, was measured as a slope of [O2] traces. The rate of initiation, RIN, was determined by the inhibitor method with HPMC (“6-hydroxy-2,2,5,7,8-pentamethylbenzochroman”) as a reference inhibitor. RIN was calculated from the induction period of inhibited oxidation, tIND: RIN=2·[HPMC]/tIND. […] When the process was inhibited by 0.23 mM chain-breaking antioxidant HPMC, the duration of the induction period, tIND, was about 48 min, with the RIN value of around 0.16×10^−6 M/s. […] The latter precludes a direct determination of RIN. […] An estimated kinetic isotope effect (“KIE”), from comparison of ROX for LA and D2-LA, was around 6.1×10^−6/0.18×10^−6≈35. A similar KIE was determined during the oxidation of LA and 11,11-d2-LA in Triton X-100 aqueous micelles (data not shown). For comparative purposes, the theoretical KIE is 6.9 at 25° C. See Carpenter, “Determination of Organic Reaction Mechanisms” (John Wiley & Sons, 1984), p. 89.

The test system of data set [6] is Wild-type yeast cells. Kind of data set: Copper-stress lipid peroxidation assay (C11-Bodipy 581/591 fluorescence). It counts as cell-based, S. cerevisiae. The settings on record: 200 μM fatty acid 2 hours, then 50 μM CuSO4 60 min. The protocol: Wild-type yeast cells were treated as described above except the yeast were treated with 200 μM of the designated fatty acid for 2 hours, washed with sterile water, and were either not treated (triangles) or treated with 50 μM CuSO4 (squares) at room temperature. After 60 min of copper treatment cells were treated with 8 μM C11-Bodipy 581/591 for 30 min at room temperature. Four 100 μl aliquots were plated in a 96-well plate and the fluorescence was measured.

Data set [7] is described as follows: Rate of oxidation of mixtures of LA and D2-LA in chlorobenzene. The format is physicochemical. Here is the method: FIG. 8. Dependence of the rate of oxidation of the mixture of LA and D2-LA in chlorobenzene solution on mixture composition. Conditions: [LA]+[11,11-d2-LA]=0.775 M; [AMVN]=0.0217 M; 37° C. RIN=(1.10±0.08)×10^−7 M/sec.
To simulate the likely in vivo conditions, the kinetics of the oxidation of the mixtures of D2-LA and LA were studied (FIG. 8). In the experiments, the concentration of LA plus 11,11-d2-LA was 0.775 M; the concentration of AMVN was 0.0217 M; and the reactions were carried out at 37° C. The results afforded an RIN of 1.10±0.08×10^−7 M/sec.

The conditions of data set [8]: 70 kg person; cited from earlier work.

Structures are written as SMILES. Where two headings read alike, the source gives them in different places.

Regarding `CCCCC/C=C\C/C=C\C/C=C\C/C=C\CCCC(=O)O` [arachidonic acid], the “sensitivity of Q-less yeast to fatty acid treatment” value in data set [1] is recorded as “hypersensitive”.

For the compound `[2H]C(/C=C\CCCCC)/C=C\CCCCCCCC(=O)O` (stereo not shown) [11,11-D,H-LA, [11-^2H]-linoleic acid], in data set [2] (after 3 hours of treatment, data not shown), the “loss in cell viability” value is given as “no detectable loss in cell viability”.

Consider `CC/C=C\C/C=C\C/C=C\CCCCCCCC(=O)O` [linolenic acid, cis,cis,cis-9,12,15-Octadecatrienoic acid], for which, in data set [1] (four hour treatment), the “viable Q-less (coq2, coq3, and coq5) yeast mutants” value is on record as “Less than 1%”. Further, the “wild-type cells that remain viable” value in data set [3] is recorded as 70%. Further, the “viability of coq null mutants after fatty acid treatment” value (shortened to “viability of coq null mutants”) in data set [4] is recorded as “dramatic loss of viability”.

As to `[2H]C([2H])(/C=C\CC)/C=C\C([2H])([2H])/C=C\CCCCCCCC(=O)O` [D4-ALA, 11,11,14,14-Tetradeutero-cis,cis,cis-9,12,15-Octadecatrienoic acid], the “minimal amount of deuterated Lnn to cancel the toxicity of ALA” value in data set [2] (200 μM total ALA and D4-Lnn at different ratios) is recorded as 15-20%. Also, the “viability of coq null mutants” value in data set [4] (listed as D4-linolenic acid) was “resistant to PUFA-mediated cell killing”. Moreover, in data set [4], the “viability of cells by quantitative colony counting” value is “similar”.

Turning to `CCCCCCCC/C=C\CCCCCCCC(=O)O` [oleic acid, reference compound], the “sensitivity of Q-less yeast to fatty acid treatment” value in data set [1] is reported as “behave the same as the wild-type parental strain”. The “viability of cells by quantitative colony counting” value in data set [4] is “similar”.

Turning to `[2H]C([2H])(/C=C\CCCCC)/C=C\CCCCCCCC(=O)O` [D2-LA, 11,11-Dideutero-cis,cis-9,12-Octadecadienoic acid], in data set [5], the “length of the kinetic chain, ν=ROX/RIN” value is “≈ 1.1” and the “rate of oxidation, ROX” value came out at 1.8e-07 M/s. In data set [5] (data not shown), the “effect of addition of HPMC on oxidation” value is “did not result in the decrease in ROX and the appearance of any detectable induction period”. The “estimated kinetic isotope effect (KIE)” value in data set [5] (from comparison of ROX for LA and D2-LA) is “≈ 35”. In addition, the “levels of lipid peroxidation” value in data set [6] is reported as “lower levels of lipid peroxidation similar to yeast not treated with PUFA”. Besides, the “effect in mixture with non-deuterated methyl linoleate” value in data set [7] (data not shown) is listed as “qualititatively similar effect”. For the same compound, the “effect of D2-LA on autoxidation of non-deuterated LA” value in data set [7] (mixtures with LA) was “‘protects’ the non-deuterated LA against autoxidation”. The “minimal amount of D2-LA to cancel the toxicity of LA” value in data set [2] (200 μM total LA and D2-LA at different ratios) was 10-15%.

On to `[2H]C([2H])(/C=C\C/C=C\CC)C/C=C\CCCCCCC(=O)O` [11, 11-D2-linolenic acid, 11,11-Dideutero-cis,cis,cis-octadeca-8,12,15-trienoic acid], for which, in data set [4], the “viability of coq null mutants” value is recorded as “comparable protection”.

Consider `CCCCC/C=C\C/C=C\CCCCCCCC(=O)O` [LA, cis,cis-9,12-Octadecadienoic acid, reference compound], for which, in data set [5], the “length of the kinetic chain, ν=ROX/RIN” value came out at 38±3 and the “rate of oxidation, ROX” value stood at 6.1e-06 M/s. In data set [5] (calculated from induction period, RIN=2·[HPMC]/tIND), the “rate of initiation, RIN” value was “around 0.16×10^−6 M/s”. The calculated oxidizability in data set [5] (n=5) is 0.0215±0.008 M^−0.5 s^−0.5.

Take `[2H]C([2H])(/C=C\CC)/C=C\CC/C=C\CCCCCCC(=O)O` [14, 14-D2-linolenic acid, 14,14-Dideutero-cis,cis,cis-octadeca-8,12,15-trienoic acid]: the “viability of coq null mutants” value in data set [4] is recorded as “comparable protection”.

In the case of `[2H]O[2H]` [heavy water], the “amount that might be drunk without serious consequences” value in data set [8] was 4.8 L.
